# Source: patent US12486273B2 (Hoffmann-La Roche Inc., priority 2019, dated 2025)
# Columns and labels:
# [1] = Human microsomal stability assay; assay type: in vitro ADME; conditions: human liver microsomes, 1 μM test compound, 37° C., pH 7.4
# Procedure: Human Microsomal Stability Assay
# Human liver microsomes (Cat. NO.: 452117, Corning, USA) were preincubated with test compound for 10 minutes at 37° C. in 100 mM potassium phosphate buffer, pH 7.4. The reactions were initiated by adding NADPH regenerating system. The final incubation mixtures contained 1 μM test compound, 0.5 mg/mL liver microsomal protein, 1 mM MgCl2, 1 mM NADP, 1 unit/mL isocitric dehydrogenase and 6 mM isocitric acid in 100 mM potassium phosphate buffer, pH 7.4. After incubation times of 0, 3, 6, 9, 15 and 30 minutes at 37° C., 300 μL of cold ACN (including internal standard) was added to 100 μL incubation mixture to terminate the reaction. Following precipitation and centrifugation, 100 μL supernatant will be taken out and added 300 μL water. The amount of compound remaining in the samples was determined by LC-MS/MS. Controls of no NADPH regenerating system at zero and 30 minutes were also prepared and analyzed. The results were categorized as: low (<7.0 mL/min/kg), medium (7.0-16.2 mL/min/kg) and high (16.2-23.2 mL/min/kg).
# [2] = biological target: human TLR8 (Homo sapiens (Human), UniProt Q9NR97); experiment: HEK293-Blue-hTLR-8 cells assay; assay type: cell-based; conditions: HEK293-Blue-hTLR8 cells, R848 stimulation, 20 hrs, SEAP reporter; read-out: HEK/hTLR8 IC50
# Chain of human TLR8 (Q9NR97 27-1041): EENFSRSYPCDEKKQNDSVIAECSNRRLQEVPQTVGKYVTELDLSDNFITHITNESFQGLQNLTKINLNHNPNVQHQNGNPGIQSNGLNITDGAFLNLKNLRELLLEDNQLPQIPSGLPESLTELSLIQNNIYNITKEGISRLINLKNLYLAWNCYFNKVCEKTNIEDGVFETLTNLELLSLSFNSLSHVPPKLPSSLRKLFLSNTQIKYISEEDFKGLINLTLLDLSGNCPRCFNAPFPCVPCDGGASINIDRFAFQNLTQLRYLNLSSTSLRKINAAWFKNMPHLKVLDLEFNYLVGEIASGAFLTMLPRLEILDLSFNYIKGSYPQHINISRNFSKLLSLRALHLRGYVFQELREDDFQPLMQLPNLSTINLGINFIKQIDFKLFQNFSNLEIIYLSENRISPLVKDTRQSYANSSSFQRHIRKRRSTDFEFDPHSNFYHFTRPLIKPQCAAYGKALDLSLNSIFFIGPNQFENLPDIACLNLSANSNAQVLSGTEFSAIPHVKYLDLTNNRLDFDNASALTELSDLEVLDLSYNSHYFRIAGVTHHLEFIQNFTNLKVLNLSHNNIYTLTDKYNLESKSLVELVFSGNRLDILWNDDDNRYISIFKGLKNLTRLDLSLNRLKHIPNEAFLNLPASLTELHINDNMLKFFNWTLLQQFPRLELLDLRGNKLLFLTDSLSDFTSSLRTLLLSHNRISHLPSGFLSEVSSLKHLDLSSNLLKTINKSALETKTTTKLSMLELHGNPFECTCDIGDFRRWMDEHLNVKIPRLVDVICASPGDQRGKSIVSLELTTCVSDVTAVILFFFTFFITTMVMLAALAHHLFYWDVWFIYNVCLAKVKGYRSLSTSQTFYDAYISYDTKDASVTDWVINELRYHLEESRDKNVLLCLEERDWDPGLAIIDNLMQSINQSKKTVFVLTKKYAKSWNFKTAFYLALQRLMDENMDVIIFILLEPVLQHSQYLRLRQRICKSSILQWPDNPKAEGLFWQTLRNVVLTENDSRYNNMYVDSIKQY
Compound,CL (h) [1],IC50 [2]
"C[C@@H]1CN(c2ccc(C#N)c3ncccc23)C[C@@H]2C[C@@H](Nc3ccc4c(n3)CNCC4)CN21 [Example 3, 5-[(4R,7R,8aS)-4-methyl-7-(5,6,7,8-tetrahydro-1,7-naphthyridin-2-ylamino)-3,4,6,7,8,8a-hexahydro-1H-pyrrolo[1,2-a]pyrazin-2-yl]quinoline-8-carbonitrile]",6.7 mL/min/kg,18.4 nM
"[2H]c1ccc2c(N3C[C@@H]4C[C@H](N5CCC(N(C)C)CC5)CN4[C@H](C)C3)ccc(C#N)c2n1 [Example 20, 5-[(4R,7S,8aS)-7-[4-(dimethylamino)-1-piperidyl]-4-methyl-3,4,6,7,8,8a-hexahydro-1H-pyrrolo[1,2-a]pyrazin-2-yl]-2-deuterio-quinoline-8-carbonitrile]",6.2 mL/min/kg,18.3 nM
"[2H]c1ccc2c(N3C[C@@H]4C[C@H](N5CCNCC5)CN4[C@H](C)C3)ccc(C#N)c2n1 [Example 15, 5-[(4R,7S,8aS)-4-methyl-7-piperazin-1-yl-3,4,6,7,8,8a-hexahydro-1H-pyrrolo[1,2-a]pyrazin-2-yl]-2-deuterio-quinoline-8-carbonitrile]",8.0 mL/min/kg,20.3 nM

# Molecules with a lower IC50 [2], results first:
CL (h) [1],IC50 [2],Compound
7.3 mL/min/kg,12.5 nM,"C[C@@H]1CN(c2ccc(C#N)c3ncccc23)C[C@@H]2C[C@@H](Nc3cc4c(cn3)CCNC4)CN21 [Example 2, 5-[(4R,7R,8aS)-4-methyl-7-(5,6,7,8-tetrahydro-2,6-naphthyridin-3-ylamino)-3,4,6,7,8,8a-hexahydro-1H-pyrrolo[1,2-a]pyrazin-2-yl]quinoline-8-carbonitrile]"
9.1 mL/min/kg,13.4 nM,"C[C@@H]1CN(c2ccc(C#N)c3ncccc23)C[C@@H]2C[C@@H](Nc3ccc4c(n3)CCNC4)CN21 [Example 1, 5-[(4R,7R,8aS)-4-methyl-7-(5,6,7,8-tetrahydro-1,6-naphthyridin-2-ylamino)-3,4,6,7,8,8a-hexahydro-1H-pyrrolo[1,2-a]pyrazin-2-yl]quinoline-8-carbonitrile]"
